Experimental data reported in paper PMC8232766, “Chemical Composition and Immunomodulatory Activity of Essential Oils from Rhododendron albiflorum” (Molecules, 2021).

Key:
HL60 cells = assay: Cytotoxicity assay (CellTiter-Glo) in HL60 cells; format: cell-based, human; details: oils up to 25 µg/mL, compounds up to 25 µM
Method: Cytotoxicity of essential oils and pure compounds was analyzed in human promyelocytic HL60 cells using a CellTiter-Glo Luminescent Cell Viability Assay Kit (Promega), as described previously.

MAPKAPK2 = target: T1, MAPKAPK2 (Homo sapiens, UniProt P49137); assay: KINOMEscan kinase Kd determination, MAPKAPK2; format: binding; details: maximum concentration of 33 µM
T1 construct: purchased Eurofins Pharma Discovery, San Diego, CA, USA (KINOMEscan service)
Method: (§1) KINOMEscan®® was used to determine the dissociation constant (Kd) of the indicated sesquiterpenes for selected kinases (Eurofins Pharma Discovery, San Diego, CA, USA). […] Assays were performed in duplicate, and the average mean value is shown.

FPR1-HL60 cells = target: T2, FPR1-HL60 cells (Homo sapiens, UniProt P21462); assay: Inhibition of fMLF-induced Ca2+ influx in FPR1-HL60 cells; format: cell-based; details: pure compounds; 10 min preincubation; induced by 5 nM fMLF
T2 construct: expressed in transfected cells
T2 sequence (P21462 1-350): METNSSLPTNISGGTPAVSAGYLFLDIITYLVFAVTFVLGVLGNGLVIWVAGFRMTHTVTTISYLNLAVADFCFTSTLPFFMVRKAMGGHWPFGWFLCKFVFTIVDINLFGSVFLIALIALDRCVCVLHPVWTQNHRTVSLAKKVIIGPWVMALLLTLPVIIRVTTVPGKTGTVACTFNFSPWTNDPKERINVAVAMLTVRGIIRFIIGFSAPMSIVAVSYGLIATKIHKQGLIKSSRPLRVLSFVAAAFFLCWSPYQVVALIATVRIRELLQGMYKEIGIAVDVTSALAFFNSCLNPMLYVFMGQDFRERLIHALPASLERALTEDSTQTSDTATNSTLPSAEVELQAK
Method: (§2) Human promyelocytic leukemia HL60 cells stably transfected with FPR1 (FPR1-HL60 cells) or FPR2 (FPR2-HL60 cells) were kindly provided by Dr. Marie-Josephe Rabiet, INSERM, Grenoble, France. These cells were cultured in RPMI 1640 medium containing 10% heat-inactivated fetal calf serum, 10 mM HEPES, 100 μg/mL streptomycin, 100 U/mL penicillin, and G418 (1 mg/mL). G418 was removed before assays were performed.
(§3) Changes in intracellular Ca^2+ concentrations ([Ca^2+]i) in human neutrophils were measured with a FlexStation 3 scanning fluorometer (Molecular Devices), as previously described. To assess the direct effects of test compounds or pure essential oils on Ca^2+ influx, the compounds/oils were added to the wells (final concentration of DMSO was 1%), and changes in fluorescence were monitored (λex = 485 nm, λem = 538 nm) every 5 s for 240 s at room temperature after addition of the test compound. To evaluate inhibitory effects of the compounds on FPR1/FPR2-dependent Ca^2+ influx, the compounds were added to the wells (final concentration of DMSO was 1%) with cells (human neutrophils or FPR1/FPR2 HL60 cells). The samples were preincubated for 10 min, followed by addition of 5 nM fMLF (for human neutrophils or FPR1-HL60 cells) or 5 nM WKYMVM (for FPR2-HL60 cells). The maximum change in fluorescence, expressed in arbitrary units over baseline, was used to determine the agonist response. Responses were normalized to the response induced by 5 nM fMLF or 5 nM WKYMVM, which were assigned as 100%.
(§4) For all Ca^2+ influx experiments, curve fitting (at least five or six points) and calculation of median effective concentration values (EC50 or IC50) were performed by nonlinear regression analysis of the dose–response curves generated using Prism 7 (GraphPad Software, Inc., San Diego, CA, USA).

human neutrophils [1] = assay: Inhibition of fMLF-induced Ca2+ influx in human neutrophils; format: cell-based; details: Homo sapiens, Neutrophil; pure compounds; 10 min preincubation; induced by 5 nM fMLF
Text: (§5) For isolation of human neutrophils, blood was collected from healthy donors in accordance with a protocol approved by the Institutional Review Board at Montana State University (Protocol #MQ041017), as described previously. Isolated neutrophils were washed and resuspended in HBSS^–. Neutrophil preparations were routinely >95% pure and >98% viable. Neutrophils were obtained from multiple different donors (n = 8); however, the cells from different donors were never pooled during experiments.
as §3, §4

[2] = test system: human C20 microglial cells; assay: Ca2+ influx (direct effect) in C20 microglial cells; format: cell-based; details: Homo sapiens; pure compounds; direct effect on [Ca2+]i; mean ± SD of three experiments
Method: (§6) Human C20 microglial cells were kindly provided by Dr. David Alvarez-Carbonell (Department of Molecular Biology and Microbiology, Case Western Reserve University, Cleveland, OH, USA); these are immortalized primary human microglial cells that maintain characteristics of primary microglial cells. C20 cells were grown at 37 °C and 5% CO2 in DMEM:F12 medium supplemented with 10% FBS, 2.5 mM L-glutamine, 110 mg/L sodium pyruvate, 15 mM HEPES, 100 μg/mL normocin, 100 μg/mL streptomycin, and 100 U/mL penicillin.
(§7) For analysis of Ca^2+ influx in C20 microglial cells, the cells were plated in 96-well black, clear bottom plates at 10^4 cells/well in DMEM/F12 medium containing 10% FBS. The cells were treated with 200 nM PMA for 24 h, and the medium was changed every day for 5 days. On day 5, the cells were loaded with FLIPR Calcium 5 (Molecular Devices) at a volume ratio of 1:1 for 30 min at 37 °C in the dark. The plates were then placed in a FlexStation 3 fluorometer, and basal fluorescence was measured (λex = 485 nm, λem = 538 nm). Essential oils or individual compounds of interest were added manually (final concentration of DMSO was 1%), and fluorescence was monitored for 2 min to assess the direct effects of these treatments on [Ca^2+]i. After a 10 min incubation at 37 °C, the fluorescence baseline was recorded again, and 10 µM fMLF was added to evaluate inhibitory effects on agonist-induced [Ca^2+]i. Responses were normalized to the response induced by 10 µM fMLF.
as §4

human neutrophils [3] = assay: Neutrophil chemotaxis assay (fMLF-induced); format: cell-based; details: Homo sapiens, Neutrophil; pure compounds; chemotaxis induced by 1 nM fMLF
Text: as §5
Human neutrophils were resuspended in HBSS^+ containing 2% (v/v) heat-inactivated fetal bovine serum (2 × 10^6 cells/mL), and chemotaxis was analyzed in 96-well ChemoTx chemotaxis chambers (Neuroprobe, Gaithersburg, MD), as described previously. Curve fitting (at least eight to nine points) and calculation of median effective concentration values (IC50) were performed by nonlinear regression analysis of the dose-response curves generated using GraphPad Prism 8.

FPR2-HL60 cells = target: T3, FPR2-HL60 cells (Homo sapiens, UniProt P25090); assay: Inhibition of WKYMVM-induced Ca2+ influx in FPR2-HL60 cells; format: cell-based; details: pure compounds; 10 min preincubation; induced by 5 nM WKYMVM
T3 construct: expressed in transfected cells
T3 sequence (P25090 1-351): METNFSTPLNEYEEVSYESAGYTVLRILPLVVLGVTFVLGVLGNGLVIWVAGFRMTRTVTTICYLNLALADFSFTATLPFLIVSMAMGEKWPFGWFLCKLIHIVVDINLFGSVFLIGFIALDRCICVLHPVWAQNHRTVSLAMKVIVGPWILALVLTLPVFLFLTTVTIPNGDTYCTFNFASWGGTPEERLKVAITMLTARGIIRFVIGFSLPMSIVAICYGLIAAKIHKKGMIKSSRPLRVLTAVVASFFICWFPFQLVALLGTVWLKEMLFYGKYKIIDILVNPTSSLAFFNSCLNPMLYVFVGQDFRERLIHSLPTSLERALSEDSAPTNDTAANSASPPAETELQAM
Method: as §2, §3, §4

JNK3 = target: T4, JNK3 (Homo sapiens, UniProt P53779); assay: KINOMEscan kinase Kd determination, JNK3; format: binding; details: maximum concentration of 33 µM
T4 construct: purchased Eurofins Pharma Discovery, San Diego, CA, USA (KINOMEscan service)
Method: as §1

PIM1 = target: T5, PIM1 (Homo sapiens, UniProt P11309); assay: KINOMEscan kinase Kd determination, PIM1; format: binding; details: maximum concentration of 33 µM
T5 construct: purchased Eurofins Pharma Discovery, San Diego, CA, USA (KINOMEscan service)
Method: as §1

[4] = test system: human C20 microglial cells; assay: Inhibition of fMLF-induced Ca2+ influx in C20 microglial cells; format: cell-based; details: 10 min, pure compounds, 10 min incubation, induced by 10 μM fMLF
Method: as §6, §7, §4

human neutrophils [5] = assay: Ca2+ influx (direct effect) in human neutrophils; format: cell-based; details: Homo sapiens, Neutrophil; pure compounds; direct effect on [Ca2+]i; mean ± SD of three experiments
Text: as §5, §3, §4

T5 sequence (P11309 whole entry): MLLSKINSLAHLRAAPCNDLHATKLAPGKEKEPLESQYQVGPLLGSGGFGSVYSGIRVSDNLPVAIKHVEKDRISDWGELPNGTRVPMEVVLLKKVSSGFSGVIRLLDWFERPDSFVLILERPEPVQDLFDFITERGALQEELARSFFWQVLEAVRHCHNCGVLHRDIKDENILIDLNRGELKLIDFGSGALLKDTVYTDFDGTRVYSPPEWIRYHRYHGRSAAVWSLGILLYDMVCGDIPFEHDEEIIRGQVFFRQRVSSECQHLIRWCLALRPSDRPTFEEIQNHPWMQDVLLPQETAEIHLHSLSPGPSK
T1 sequence (P49137 whole entry): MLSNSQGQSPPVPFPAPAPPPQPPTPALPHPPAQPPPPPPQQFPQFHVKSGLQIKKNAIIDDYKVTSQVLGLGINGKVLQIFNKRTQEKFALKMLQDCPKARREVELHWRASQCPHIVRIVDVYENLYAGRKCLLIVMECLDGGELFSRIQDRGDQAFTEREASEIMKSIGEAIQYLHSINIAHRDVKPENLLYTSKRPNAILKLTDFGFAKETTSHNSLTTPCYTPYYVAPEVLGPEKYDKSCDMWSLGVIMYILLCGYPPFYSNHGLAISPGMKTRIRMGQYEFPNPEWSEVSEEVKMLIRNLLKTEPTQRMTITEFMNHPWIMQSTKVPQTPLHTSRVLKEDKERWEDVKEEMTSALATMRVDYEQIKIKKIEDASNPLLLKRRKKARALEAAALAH
T4 sequence (P53779 whole entry): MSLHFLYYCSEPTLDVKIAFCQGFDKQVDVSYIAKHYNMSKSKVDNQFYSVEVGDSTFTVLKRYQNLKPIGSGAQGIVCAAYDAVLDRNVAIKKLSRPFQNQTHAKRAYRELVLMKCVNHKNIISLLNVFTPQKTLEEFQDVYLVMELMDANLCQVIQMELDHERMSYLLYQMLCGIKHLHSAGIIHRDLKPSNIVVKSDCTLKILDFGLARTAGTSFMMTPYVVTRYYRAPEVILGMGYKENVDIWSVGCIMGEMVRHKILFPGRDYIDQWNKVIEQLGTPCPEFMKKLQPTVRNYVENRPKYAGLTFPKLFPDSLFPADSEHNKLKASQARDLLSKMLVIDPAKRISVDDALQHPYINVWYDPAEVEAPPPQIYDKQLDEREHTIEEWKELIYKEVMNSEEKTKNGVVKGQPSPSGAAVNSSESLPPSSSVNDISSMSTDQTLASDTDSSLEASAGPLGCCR

Binding affinity (Kd) toward MAPKAPK2 (MAPKAPK2): did not observe any binding activity
IC50 (FPR1-HL60 cells): 19.5 ± 4.7 µM
IC50 (human neutrophils [1]): 7.8 ± 2.3 µM
EC50 [2]: 27.8 ± 4.6 µM
IC50 (human neutrophils [3]): 18.3 ± 4.1 µM
IC50 (FPR2-HL60 cells): 10.7 ± 3.8 µM
Binding affinity (Kd) toward JNK3 (JNK3): did not observe any binding activity
Binding affinity (Kd) toward PIM1 (PIM1): did not observe any binding activity
IC50 [4]: 22.6 ± 3.1 µM
EC50 (human neutrophils [5]): 6.8 ± 2.3 µM
Compound: C[C@@H]1CC[C@H]2[C@@H]1[C@H]1[C@@H](CC[C@]2(C)O)C1(C)C [Viridiflorol, viridiflorol]
Cell viability (cytotoxicity), 30 min incubation (HL60 cells; 30 min): minimal effects on cell viability
Cell viability (cytotoxicity), 2 h incubation (HL60 cells; 2 h): a little more cytotoxicity
